Values joined by “and” are separate entries in the source; they are usually repeats but may differ in a detail not shown here. Equal entries are not always repeated.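 Grown in 96-well plates, cells were treated for 48 hours with each compound at five concentrations. Insufficient inhibition: endpoint recorded as highest concentration tested. Here, GI50 denotes the concentration required for 50% inhibition of growth. TGI: total growth inhibition.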
Legend:
Experiment in all cases: NCI tumour cell line growth inhibition, 48 h
XF 498 CNS = system: XF 498 CNS
DMS 114 small cell lung = system: DMS 114 small cell lung
HOP-18 NSCLC = system: HOP-18 NSCLC
LXFL 529 NSCLC = system: LXFL 529 NSCLC
DLD-1 colon = system: DLD-1 colon
RXF-631 renal = system: RXF-631 renal
MDA-N = system: MDA-N
PC-3 prostate = system: PC-3 prostate
T-47D breast = system: T-47D breast
P388 leukemia = system: P388 leukemia

Compound	TGI (XF 498 CNS)	TGI (DMS 114 small cell lung)	TGI (HOP-18 NSCLC)	TGI (LXFL 529 NSCLC)	TGI (DLD-1 colon)	TGI (RXF-631 renal)	other results
Cc1cc(C)nc(NS(=O)(=O)c2ccc(Nc3c4ccccc4nc4c(C(=O)Nc5ccc(S(=O)(=O)N=C(N)N)cc5)ccc(Cl)c34)cc2)n1	56.7 µM	41.8 µM	> 100 µM	72.4 µM	> 100 µM		
COc1cc([C@H]2c3cc4c(cc3O[C@@]3(O)COC(=O)[C@@H]23)OCO4)cc(OC)c1OC	> 100 µM	> 100 µM	> 100 µM		> 100 µM	> 100 µM	TGI (MDA-N): > 100 µM; TGI (PC-3 prostate): > 100 µM; TGI (T-47D breast): > 100 µM
O=[N+]([O-])c1ccc(C(c2c[nH]c3ccccc23)c2c[nH]c3ccccc23)cc1							TGI (MDA-N): 27.5 µM; TGI (PC-3 prostate): 28.4 µM; TGI (T-47D breast): 7.07 µM
N#Cc1c(-c2nc3ccccc3s2)c(=O)oc2cc(O)ccc12							TGI (MDA-N): > 100 µM; TGI (PC-3 prostate): > 100 µM; TGI (T-47D breast): 78.2 µM
Cn1c2c(c3ccccc31)CCN(CCCCN1CCc3c(n(C)c4ccccc34)C1=O)C2	> 100 µM	> 100 µM	> 100 µM	> 100 µM	> 100 µM	> 100 µM	
COc1ccc(C(=O)/C(Br)=C/C(=O)O)cc1	16 µM	114 µM	139 µM		73.5 µM		TGI (P388 leukemia): 53.7 µM; GI50 (MDA-N): 47.4 µM; TGI (MDA-N): 209 µM and 153 µM; GI50 (PC-3 prostate): 74.5 µM; TGI (PC-3 prostate): 159 µM and 257 µM; GI50 (T-47D breast): 15.7 µM; TGI (T-47D breast): 149 µM and 260 µM
Nc1ccn(CCOC(=O)c2ccccc2)c(=O)n1			> 100 µM	> 100 µM	> 100 µM	> 100 µM	
Nn1c(-c2ccccc2)nc2ccc(Br)cc2c1=O	> 100 µM	> 100 µM	> 100 µM	> 100 µM	> 100 µM	> 100 µM	
O=C1C(=O)N(C(=O)c2ccc(Cl)c(Cl)c2)c2ccccc21		> 100 µM	> 100 µM	> 100 µM	> 100 µM	> 100 µM	
N#CCC(=O)Nc1cccc(C(F)(F)F)c1	> 100 µM		> 100 µM	> 100 µM	> 100 µM	> 100 µM	
COC(=O)C1CC2(CC3=C1CCCC3)OCCO2 (stereo not drawn)	> 100 µM	> 100 µM		> 100 µM	> 100 µM	> 100 µM	
CCOC(=O)C(=O)Nc1nc2c(s1)C(=O)c1ccccc1C2=O	26.9 µM	17.6 µM		26.2 µM	31.8 µM	27.8 µM	
O=C1CC(O)C=C1Nc1ccc(Cl)cc1 (stereo not drawn)		> 100 µM	> 100 µM	> 100 µM	> 100 µM	> 100 µM	
COc1cc(OC)c([C@@H]2OC(=O)C3C2C(=O)O[C@H]3c2cc(OC)c(OC)cc2OC)cc1OC (stereo partly drawn)	> 100 µM	> 100 µM	> 100 µM	> 100 µM	> 100 µM		
CNC(P(=O)([O-])[O-])P(=O)([O-])[O-].N.N.[Pt+2]			> 100 µM	> 100 µM	> 100 µM		GI50 (HOP-18 NSCLC): > 100 µM; GI50 (LXFL 529 NSCLC): > 100 µM; GI50 (DLD-1 colon): > 100 µM
Cc1cnc2c(C)ccc([N+](=O)[O-])c2c1NCCCN(C)C		> 100 µM					
CCOC(=O)[C@@]1(C)C=C2O[C@@H]3OC4(CCCCC4)O[C@@H]3C2=C2C(O)=CC=C(O)[C@]21C(=O)OC	> 68 µM	> 68 µM	> 68 µM	> 68 µM	> 68 µM	> 68 µM	
CCc1cccc(C(C)C)c1NC(=O)C(=O)C(Cc1nc2ccccc2[nH]c1=O)C(=O)OC (stereo not drawn)	> 100 µM	30.5 µM	> 100 µM	> 100 µM	> 100 µM		
COc1cccc(C2CC(C)(N3CCCC3)Oc3cc4c(cc32)OCO4)c1O (stereo not drawn)							TGI (MDA-N): 10.7 µM; TGI (PC-3 prostate): > 76.1 µM; TGI (T-47D breast): > 100 µM
C[C@@H]1C[C@@H](O)[C@]2(O)O[C@@H]3C[C@@]4(C=O)[C@@H](CC[C@@H]5[C@@H]4CC[C@]4(C)[C@@H](C6=CC(=O)OC6)CC[C@]54O)C[C@H]3O[C@@H]2O1	0.0571 µM and 0.0493 µM	0.0094 µM and 0.0134 µM		0.0164 µM and 0.0576 µM	0.0375 µM and 0.033 µM		GI50 (XF 498 CNS): 0.0206 µM; GI50 (DMS 114 small cell lung): 0.005 µM; GI50 (HOP-18 NSCLC): 0.005 µM; TGI (MDA-N): 0.189 µM; TGI (PC-3 prostate): 0.518 µM; TGI (T-47D breast): 0.89 µM; GI50 (DLD-1 colon): 0.0053 µM
O=c1c2ccccc2[nH]c(=S)n1-c1ccc(Br)cc1	> 100 µM	> 100 µM	> 100 µM	> 100 µM	> 100 µM		
Cc1cc2c(c(C#N)c1C)NC(=O)CCC2=O	> 100 µM	> 100 µM		> 100 µM	> 100 µM	> 100 µM	
